From the METLIN SMRT retention time set (Domingo-Almenara et al. 2019)

Experiment: gradient 5% acetonitrile 3 min, to 50% in 2 min, to 85% in 15 min, held 3 min, 100 µL/min
Conditions: column: Zorbax Extend-C18 2.1 x 50 mm; eluents: water / acetonitrile, 0.1% formic acid
In short: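 The system's dead and dwell volumes were 40 μL and 900 μL, with a Zorbax Extend-C18 column (2.1 × 50 mm, 1.8 μm) run at 100 μL/min in water and acetonitrile containing 0.1% formic acid each. Pure standards were analyzed in mixtures of ~100 molecules by HPLC–quadrupole time-of-flight mass spectrometry in positive and negative ionization mode. Retention time was assigned from computationally picked, manually inspected adduct peaks.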

| SMILES | RP-LC retention time |
| --- | --- |
| Cc1ccc(CNC(=O)C2(C)CN(S(C)(=O)=O)CC(=O)N2c2ccc(Cl)cc2C)cc1 (stereo unspecified) | 919 s |
| O=C(NCc1csc(C2CCCN(C(=O)c3c(F)cccc3F)C2)n1)C1CCC1 (stereo unspecified) | 742 s |
| CCCn1cc(C(=O)NCC(=O)OC)c(S(=O)(=O)N2CCN(c3ccccc3OCC)CC2)n1 | 969 s |
| COc1ccc(N2CCN(c3nc4ccc(C)cc4cc3-c3noc(C)n3)CC2)cc1 | 700 s |
| CCc1nncn1C1CCN(S(=O)(=O)c2ccc(F)c(C)c2)CC1 | 715 s |
| O=C(NC1CC1)c1cc(=O)[nH]c2c(Cl)cccc12 | 626 s |
| Cc1cccc(-c2nnc(-c3ccc(Cl)c(S(=O)(=O)N(C)C)c3)o2)c1 | 1040 s |
| O=S(=O)(c1cccc(F)c1)N1CCC(n2c(-c3ccoc3)nc3cccnc32)C1 (stereo unspecified) | 872 s |
| Cc1cc(S(=O)(=O)N2C[C@@H](F)C[C@H]2C(=O)N2CCc3ccccc3C2)ccc1F | 959 s |
| CCOc1nc2ccccc2nc1N1CCCC(C(=O)Nc2cccc(C(F)(F)F)c2)C1 (stereo unspecified) | 1370 s |
| O=C(Cn1cccc1-c1nnc(C2CCC2)o1)N1CCc2ccccc2C1 | 915 s |
| Cn1cc2c(N3CCSCC3)nc(C(=O)N3CCN(C4CCCC4)CC3)nc2n1 | 579 s |
| CN(C)C(=O)c1cn(C2CN(C(=O)c3ccc(C#N)cc3)C2)nn1 | 624 s |
| COc1cc(CCNC(=O)c2c(N3CCCC3=O)c3cc(F)ccc3n2C)cc(OC)c1OC | 762 s |
| O=C(Nc1ccc(F)c(Cl)c1)C1CCN(C(=O)C2Sc3ccccc3NC2=O)CC1 (stereo unspecified) | 826 s |
| COc1ccc(-c2cn3c(CC(=O)Nc4ccccc4F)csc3n2)cc1OC | 724 s |
| CCN1CCN(c2cc(C)c3cc(NC(=S)NCc4cc(OC)ccc4OC)ccc3n2)CC1 | 598 s |
| CCCC(=O)NCCn1c(=O)n(Cc2ccccc2)c2cccnc21 | 718 s |
| CCc1cccc(NC(=O)N(C)CC2CCOC2)c1 (stereo unspecified) | 739 s |
| COC(=O)CNC(=O)NCCn1c(C(F)(F)F)nc2ccccc21 | 653 s |
| Cc1ccc(CNC(=O)c2nsc(C(=O)N3CCN(c4ccccn4)CC3)c2N)cc1 | 681 s |
| Cc1nnsc1C(=O)N1CC2CC(C1)c1cccc(=O)n1C2 (stereo unspecified) | 551 s |

| SMILES | RP-LC retention time |
| --- | --- |
| Cc1c(-c2cccc(NS(=O)(=O)c3ccc(Cl)cc3)c2)nc2ncccn12 | 627 s |
| COc1ccc(CNC(=O)C2CC(=O)N(c3ccc4c(c3)CCN4C(C)=O)C2)cc1 (stereo unspecified) | 664 s |
| CCOC(=O)CC(NC(=O)CCc1c(C)nc2ncnn2c1C)c1ccc(C)cc1 (stereo unspecified) | 695 s |
| COc1ccc2nc([S@](=O)Cc3ncc(C)c(OC)c3C)[nH]c2c1 | 664 s |
| CSc1cccc(N2C(=O)C3N=NN(Cc4nc(-c5ccc(C)c(C)c5)no4)C3C2=O)c1 (stereo unspecified) | 1100 s |
| Cc1ccc(CNC(=O)C2(C)CN(S(C)(=O)=O)CC(=O)N2c2ccc(C(C)C)cc2)cc1 (stereo unspecified) | 935 s |
| Cc1cc(C)c(S(=O)(=O)N2CCCC2c2nc(-c3ccc(F)cc3)no2)cc1C (stereo unspecified) | 1270 s |
| Cc1ccc(-c2ncc(C(=O)Nc3cc(F)ccc3F)c(-c3ccncc3)n2)cc1 | 988 s |
| CC1(C)C(=O)Nc2ccc(S(=O)(=O)N3CCC(c4noc(C5CC5)n4)C3)cc21 (stereo unspecified) | 747 s |
| CCC(=O)N1CCc2sc(C(=O)NCc3ccccn3)cc2C1 | 577 s |
| COc1ccccc1N1CCN(c2ncc3c(n2)CCN(Cc2cccc(C)c2)C3)CC1 | 705 s |
| O=C1CCCc2cc(S(=O)(=O)Nc3ccc(CN4CCCCC4)cc3)ccc2N1 | 597 s |
| Cc1c2cnn(-c3ccccc3)c(=O)c2c(C)n1C(C)C(=O)NCCN1CCCC1 (stereo unspecified) | 617 s |
| N#Cc1cccc(C(=O)N2CCc3cc(-c4ccno4)ccc32)c1 | 724 s |
| Cc1ccc(CN2C[C@@H]3C(=O)N(CCc4ccccc4)C(=O)[C@@H]3C2)cc1 | 760 s |
| Cc1cc(Cl)ccc1NS(=O)(=O)c1cc2c(s1)CCN(C(=O)C1CC1)C2 | 923 s |
| CC(C)(Oc1ccc(Cl)cc1)C(=O)N1CCN(CC(O)c2cccs2)CC1 (stereo unspecified) | 603 s |
| Cc1cc(Nc2cccc(C(C)O)c2)nc(-n2cc([N+](=O)[O-])cn2)n1 (stereo unspecified) | 690 s |
| COc1ccc(-c2nc(C)c3c(n2)N(Cc2ccco2)C(=O)CC3)cc1 | 975 s |
| CCN1CCN(c2ncc(C(=O)OC)c3ccccc23)CC1 | 604 s |
| O=C(NCCc1nc(-c2ccc3c(c2)OCO3)n[nH]1)c1ccc(F)cc1Cl | 692 s |
| CC1CCN(S(=O)(=O)c2ccc(-c3nnc(C(=O)NCC(C)c4ccccc4)o3)cc2)CC1 (stereo unspecified) | 1140 s |

| SMILES | RP-LC retention time |
| --- | --- |
| CCC(C)NC(=O)C1CCN(c2nccc(-n3nc(C)cc3C)n2)CC1 (stereo unspecified) | 745 s |
| O=C(CSCC(=O)c1ccccc1)c1ccccc1 | 880 s |
| Cc1noc(C)c1CC(=O)N1CCCn2cc(-c3ccccc3F)nc21 | 710 s |
| Cc1noc(C)c1S(=O)(=O)N1[C@H]2CC[C@@H]1c1cnc(-c3ccccc3)nc1C2 | 1050 s |
| Cn1c(=O)oc2cc(-c3noc(CNC(=O)C(c4ccccc4)c4ccccc4)n3)ccc21 | 928 s |
| CCc1ccc2c(-c3cccc(Cl)c3)nc(=O)n(CC)c2n1 | 1120 s |
| COc1cc2ncnc(Nc3cccc(Cl)c3)c2cc1OC | 750 s |
| O=C(c1cccc(Cl)c1)N1CCN(c2nc(CN3CCOCC3)cs2)CC1 | 623 s |
| CCc1nccn1Cc1nc(-c2ccc(F)c(Cl)c2)no1 | 669 s |
| CCC(=O)NCc1csc(C2CCCN(C(=O)COc3ccccc3)C2)n1 (stereo unspecified) | 710 s |
| O=C(Nc1ccc(OCc2nnc(-c3ccccc3)o2)cc1)c1cccnc1Cl | 793 s |
| CC(=O)c1ccc(NC(=O)Cn2nc3c4cc(-c5ccc(C(C)C)cc5)nn4ccn3c2=O)cc1 | 1020 s |
| Cc1cc(C)cc(C(=O)N2CCCC(C(=O)NCCc3ccco3)C2)c1 (stereo unspecified) | 836 s |
| OC(COc1ccc(Br)cc1Br)CN1CCCC1 (stereo unspecified) | 576 s |
| Cc1ccc(CNC(=O)C2CCN(c3nc(C4CCC4)nc4csc(C)c34)CC2)cc1C | 808 s |
| COc1ccc(Nc2nc(N3CCN(c4ccccc4OC)CC3)nc3c2C(=O)CCC3)cc1 | 1170 s |
| Fc1ccc(-c2noc(-c3ccc(NCC4CCCO4)nc3)n2)cc1 (stereo unspecified) | 940 s |
| COCC(=O)Nc1cnc(-c2ccc(OC)cc2)nc1 | 724 s |
| CCC(C)NC(=O)Cn1c(=O)c2cnc(-c3ccccc3)nc2n(C)c1=O (stereo unspecified) | 854 s |
| COc1cc(C(c2nnnn2C(C)(C)C)N2CCN(c3ccccn3)CC2)cc(OC)c1OC (stereo unspecified) | 578 s |
| Cc1cc(-c2csc(S(=O)(=O)NCCc3ccc(S(N)(=O)=O)cc3)c2)on1 | 744 s |
| Fc1ccccc1-c1noc(NC2CCCC2)n1 | 929 s |
